Assay results from patent publication US7442784B2, “Ligand activated transcriptional regulator proteins” (The Scripps Research Institute, priority 1999, dated 2008).
pKd: −log10 of the molar value.

Columns and labels:
Experiment in all cases: Finger 2 variant affinity (Table 5)
Type in all cases: binding
Finger-2 Subsite GTG = target: Finger-2 Subsite GTG
Source text: (§1) Finger 2 variants recognizing each of the 16 triplets of the GXX set (Segal et al. (1999) Proc. Natl. Acad. Sci. U.S.A. 96:2758-2763; and Table 1), as well as one variant recognizing TGA, have been successfully selected. […] Thus, a 5′- and 3′-G selected an arginine at helix positions 6 and −1, respectively, while a central G selected an a histidine or lysine at position 3 of the recognition helix. In contrast, a central A selected an asparagine, a 3′-A a glutamine, a central T a serine or alanine, a 3′-T a threonine or serine, a central C an aspartate or threonine, and a 3′-C an aspartate or glutamate at the corresponding helix positions.
(§2) In Table 5, below, the finger 2 variants generated by phage display selection and refined by site-directed mutagenesis are summarized. Protein designations are in the form pXXX, for clones derived from panning; pmXXX refers to clones refined by mutagenesis. Helix positions −1, 3, and 6 are shown in bold, altered nucleotides are underlined. The values represent the results of at least two independent experiments. The standard error was ±50% or less.

Finger-2 Subsite GAG = target: Finger-2 Subsite GAG
Source text: as §1, §2

Finger-2 Subsite GTT = target: Finger-2 Subsite GTT
Source text: as §1, §2

Substance	KD,Prot/KD,Zif268 (Finger-2 Subsite GTG)	pKd (Finger-2 Subsite GTG)	KD,Prot/KD,Zif268 (Finger-2 Subsite GAG)	pKd (Finger-2 Subsite GAG)	KD,Prot/KD,Zif268 (Finger-2 Subsite GTT)	pKd (Finger-2 Subsite GTT)
pmGTG: finger 2 variant refined by mutagenesis, helix SRSDELVR	1.5	7.82	3.0	7.52	–	–
pmGTT: finger 2 variant refined by mutagenesis, helix STSGSLVR	–	–	–	–	0.5	8.30
